{"source": "patent US6639123B1", "about": "“Melanocortin-3 receptor deficient cells, non-human trangenic animals and methods of selecting compounds which regulate body weight” (Merck & Co., Inc., priority 1999, dated 2003)", "tested_on": "male MC-3R^−/− and WT mice", "assay": "Peripheral MTII administration: 24-h food consumption", "conditions": "single intraperitoneal injection, 10 mg/kg, n=9, P<0.05", "protocol": "Peripheral MTII administration—For seven consecutive days, individually-housed 23-25-week-old male MC-3R^−/− (n=9) and WT (n=9) mice received an intraperitoneal (ip) injection of a sterile 0.9% NaCl vehicle solution approximately 30 min before the onset of the dark phase of the light cycle. At the same time on the eighth consecutive day of the study, mice received an ip injection of MTII at a dose of 10 mg/kg delivered in vehicle. Body and food (Teklad 7012) weights were measured and recorded daily approximately 15 min prior to injection."}
{"substance": "MTII", "values": [{"measurement": "reduction of food consumption over a 24-h period relative to a 2-day vehicle treatment baseline", "setting": "MC-3R^−/− male mice", "result": "16.9±7.0", "unit": "%"}, {"measurement": "reduction of food consumption over a 24-h period relative to a 2-day vehicle treatment baseline", "setting": "WT male mice", "result": "11.1±4.3", "unit": "%"}]}
